What was measured:
[1] = test system: normal pressure monkeys; test: Intraocular pressure lowering, concomitant administration of omidenepag isopropyl and netarsudil (Example 2); format: in vivo, cynomolgus monkey; settings: male cynomolgus monkeys, average of 8, eye drop 20 μL: omidenepag isopropyl 0.0006 w/v%, netarsudil 0.01 w/v% (dimesylate)
Experimental: (§1) In order to examine usefulness of the combination of omidenepag or an ester thereof or a salt thereof and netarsudil, the effect of lowering an intraocular pressure when omidenepag isopropyl and netarsudil were administered concomitantly to experimental animals (normal pressure monkeys) was investigated.
(1) Preparation of Base of Omidenepag Isopropyl Solution • (Preparation of Compound Solution to be Tested) […]
(2) Preparation of Omidenepag Isopropyl Solution
(§2) To purified water were added omidenepag isopropyl, polyoxyl 35 castor oil, glycerin, sodium citrate, sodium edetate and benzalkonium chloride to dissolve them, and after adjusting pH, purified water was added to adjust the whole amount to prepare a 0.0006 w/v% omidenepag isopropyl solution.
(3) Preparation of Netarsudil Solution
Dimesylate of netarsudil was dissolved in a physiological saline solution containing a solubilizing agent, and then, a netarsudil solution having a desired concentration was prepared by using a commonly used method.
(§3) An effect of lowering an intraocular pressure when omidenepag isopropyl and netarsudil were administered concomitantly was investigated. As a comparative subject, an effect of lowering an intraocular pressure when omidenepag isopropyl or netarsudil was administered alone was also investigated. As a control, the base of the omidenepag isopropyl solution and the base of the netarsudil solution were administered.
Omidenepag isopropyl solution: 0.0006w/v% omidenepag isopropyl solution (volume of eye dropped: 20 μL)
Netarsudil solution: 0.01 w/v% netarsudil solution (volume of eye dropped: 20 μL)
Experimental animal: cynomolgus monkey (sex: male, 8 monkeys per a group)
[1] Contamitant Administration of Omidenepag Isopropyl and Netarsudil
(§4) (1) A drop of 0.4% oxybuprocaine hydrochloride eye drop (trade name: Benoxil (Registered Trademark) eye drops 0.4%) was applied to one eye of an experimental animal and local anesthesia was conducted.
(§5) (2) Immediately before administration of a compound solution to be tested, an intraocular pressure was measured and the value was made an initial intraocular pressure.
(3) The omidenepag isopropyl solution was applied to one eye of the experimental animal (the contralateral eye was untreated). After a short time (after about 5 minutes), the netarsudil solution was applied to the same eye.
(4) After 2 hours, 4 hours, 6 hours, 8 hours and 24 hours from applying the omidenepag isopropyl solution to the eye, one drop of 0.4% oxybuprocaine hydrochloride eye drop was applied to the eye to be measured for the intraocular pressure respectively, and after local anesthesia, the intraocular pressure was measured. Also, the intraocular pressure was measured each three times, and the average value was shown in the results. […]
The test was carried out in the same manner as the above-mentioned concomitant administration test except for changing the omidenepag isopropyl solution to the base of the omidenepag isopropyl solution. […]
The changes in the intraocular pressure values are shown by an average value±SEM of the difference from the value (0 hour) before administration of eight monkeys in each group with regard to each measurement time point of each individual. Here, the significance was evaluated by the Dunnett-Hsu test, and the significance level with respect to the control group was shown as *: p<0.05, **: p<0.01, and ***: p<0.001, the significance level with respect to the omidenepag isopropyl administered group was shown as †: p<0.05, ††: p<0.01, and †††: p<0.001, and the significance level with respect to the netarsudil administered group was shown as ♯♯: p<0.01, and ♯♯♯p<0.001.

[2] = test system: normal pressure monkeys; test: Intraocular pressure lowering, concomitant administration of omidenepag isopropyl and ripasudil (Example 1); format: in vivo, cynomolgus monkey; settings: male cynomolgus monkeys, average of 7, eye drop 20 μL: omidenepag isopropyl 0.0006 w/v%, ripasudil eye drops 0.4%
Experimental: as §1, with “ripasudil,” for “netarsudil,”, “ripasudil” for “netarsudil”
To purified water were added polyoxyl 35 castor oil, glycerin, sodium citrate, sodium edetate and benzalkonium chloride to dissolve them, and after adjusting pH, purified water was added to adjust the whole amount.
as §2
Commercially available physiological saline solution (trade name: Otsuka Normal Saline, obtained from Otsuka Pharmaceutical Factory, Inc.) was used as it was.
Commercially available ripasudil eye drop was used as it was.
as §3, with “ripasudil” for “netarsudil”, “base” for “base of the omidenepag isopropyl solution”, “physiological saline” for “base of the netarsudil”
Omidenepag isopropyl solution: 0.0006w/v% omidenepag isopropyl solution (volume of eye dropped: 20 μL) Ripasudil solution: ripasudil eye drop (trade name: Glanatec (Registered Trademark) eye drops 0.4%, volume of eye dropped: 20 μL)
Experimental animal: cynomolgus monkey (sex: male, 7 monkeys per a group)
[1] Concomitant Administration of Omidenepag Isopropyl and Ripasudil
as §4, §5
(3) The omidenepag isopropyl solution was applied to one eye of the experimental animal (the contralateral eye was untreated). After a short time (after about 5 minutes), the ripasudil solution was applied to the same eye.
(4) After 2 hours, 4 hours, 6 hours, 8 hours and 24 hours from applying the omidenepag isopropyl solution to the eye, one drop of 0.4% oxybuprocaine hydrochloride eye drop was applied to the eye to be measured for the intraocular pressure respectively, and after local anesthesia, the intraocular pressure was measured. Also, the intraocular pressure was measured each three times, and the average value was shown in the results.
[2] Single Administration of Omidenepag Isopropyl
The test was carried out in the same manner as the above-mentioned concomitant administration test except for changing the ripasudil solution to the physiological saline solution.
[3] Single Administration of Ripasudil
The test was carried out in the same manner as the above-mentioned concomitant administration test except for changing the omidenepag isopropyl solution to the base.
The test was carried out in the same manner as the above-mentioned concomitant administration test except for changing the omidenepag isopropyl solution to the base and changing the ripasudil solution to the physiological saline solution.
The changes in the intraocular pressure values are shown by an average value±SEM of the difference from the value (0 hour) before administration of seven monkeys in each group with regard to each measurement time point of each individual. […]

SMILES	change in intraocular pressure value (difference from value before administration) ([1]; 2 hours after dropping)	change in intraocular pressure value (difference from value before administration) ([1]; 4 hours after dropping)	change in intraocular pressure value (difference from value before administration) ([1]; 6 hours after dropping)	change in intraocular pressure value (difference from value before administration) ([1]; 8 hours after dropping)	change in intraocular pressure value (difference from value before administration) ([1]; 24 hours after dropping)	change in intraocular pressure value (difference from value before administration) ([2]; 2 hours after dropping)	change in intraocular pressure value (difference from value before administration) ([2]; 4 hours after dropping)	change in intraocular pressure value (difference from value before administration) ([2]; 6 hours after dropping)	change in intraocular pressure value (difference from value before administration) ([2]; 8 hours after dropping)	change in intraocular pressure value (difference from value before administration) ([2]; 24 hours after dropping)
Cc1ccc(C(=O)OCc2ccc([C@@H](CN)C(=O)Nc3ccc4cnccc4c3)cc2)c(C)c1 [Netarsudil, [4-[(1S)-1-(aminomethyl)-2-(isoquinolin-6-ylamino)-2-oxoethyl]phenyl]methyl 2,4-dimethylbenzoate]	−1.5	−2.3	−3.0	−3.0	−0.8	–	–	–	–	–
CC(C)OC(=O)CNc1cccc(CN(Cc2ccc(-n3cccn3)cc2)S(=O)(=O)c2cccnc2)n1 [Omidenepag isopropyl, isopropyl (6-{[4-(pyrazol-1-yl)benzyl](pyridin-3-ylsulfonyl)aminomethyl}pyridin-2-ylamino)acetate]	−0.9	−2.5	−2.5	−2.3	−0.3	0.0	−1.2	−0.7	−0.6	−0.1
C[C@H]1CNCCCN1S(=O)(=O)c1cccc2cncc(F)c12 [Ripasudil, (S)-(-)-1-(4-fluoro-5-isoquinolinesulfonyl) 2-methyl-1,4-homopiperazine]	–	–	–	–	–	−2.7	−1.6	−1.6	−0.8	0.0

Source: patent US20210106569A1, “OMIDENEPAG COMBINATION” (priority 2017, published 2021)
